# Source: ChEMBL document CHEMBL5034001 (J Med Chem, 2021)
# Activity calls are given as the source filed them. No cut-off for these calls is given here.
# What was measured:
# SR [1] = experiment: Antiproliferative activity against human SR cells assessed as inhibition of cell growth incubated for 72 hrs by CCK8 assay; assay type: functional, cell-based
# SR [2] = experiment: Antiproliferative activity against human SR cells assessed as inhibition of cell growth at 10 nM preincubated for 5 days followed by compound washout and measured on day 7 and 9 by CCK8 assay; assay type: functional, cell-based; details: time 5.0 day
# SR [3] = experiment: Induction of G1 cell cycle arrest in human SR cells at 100 nM after 24 to 48 hrs; assay type: functional, cell-based; details: time 24-48 hrs
# Calu-1 [4] = experiment: Induction of G1 cell cycle arrest in human Calu-1 cells at 100 nM after 24 to 48 hrs; assay type: functional, cell-based; details: time 24-48 hrs
# [5] = molecular target: Signal transducer and activator of transcription 3 (Homo sapiens) (UniProt P40763); experiment: Inhibition of STAT3 downstream signalling in human NCI-H2228 cells assessed as reduction in pSTAT3 level at 1 to 1000 nM by Western blot analysis; assay type: cell-based; details: dose 1-1000 nM
# Sequence of Signal transducer and activator of transcription 3 (Homo sapiens) (P40763 whole entry): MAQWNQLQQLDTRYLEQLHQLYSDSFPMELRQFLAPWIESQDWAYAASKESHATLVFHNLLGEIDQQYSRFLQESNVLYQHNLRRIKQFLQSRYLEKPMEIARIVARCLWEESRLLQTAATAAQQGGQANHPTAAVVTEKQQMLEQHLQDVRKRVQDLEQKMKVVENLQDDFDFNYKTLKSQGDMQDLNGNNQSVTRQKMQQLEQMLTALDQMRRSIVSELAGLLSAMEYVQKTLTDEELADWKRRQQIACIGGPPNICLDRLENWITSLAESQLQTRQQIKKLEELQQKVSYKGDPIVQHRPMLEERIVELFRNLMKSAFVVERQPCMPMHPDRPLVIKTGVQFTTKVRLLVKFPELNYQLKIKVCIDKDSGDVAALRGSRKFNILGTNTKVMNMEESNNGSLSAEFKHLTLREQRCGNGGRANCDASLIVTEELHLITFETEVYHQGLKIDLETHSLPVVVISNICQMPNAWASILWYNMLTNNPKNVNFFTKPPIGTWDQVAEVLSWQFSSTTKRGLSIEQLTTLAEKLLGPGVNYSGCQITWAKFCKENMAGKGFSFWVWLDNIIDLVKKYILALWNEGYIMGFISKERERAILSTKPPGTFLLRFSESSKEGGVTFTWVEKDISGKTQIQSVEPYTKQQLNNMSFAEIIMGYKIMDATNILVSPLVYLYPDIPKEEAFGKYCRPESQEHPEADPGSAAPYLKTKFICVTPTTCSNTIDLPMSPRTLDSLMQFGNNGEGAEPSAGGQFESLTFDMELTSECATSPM
# MDA-MB-231 [6] = experiment: Induction of apoptosis in human MDA-MB-231 cells at 100 nM after 72 hrs; assay type: functional, cell-based
# [7] = molecular target: Signal transducer and activator of transcription 3 (Homo sapiens) (UniProt P40763); experiment: Inhibition of STAT3 downstream signalling in human SR cells assessed as reduction in pSTAT3 level at 10 nM by Western blot analysis; assay type: cell-based
# Calu-1 [8] = experiment: Induction of apoptosis in human Calu-1 cells at 100 nM after 72 hrs; assay type: functional, cell-based
# MDA-MB-231 [9] = experiment: Inhibition of cell migration in human MDA-MB-231 cells assessed as wound confluence ratio at 500 nM after 48 hrs by wound healing assay; assay type: functional
# MDA-MB-231 [10] = experiment: Inhibition of cell migration in human MDA-MB-231 cells at 100 nM after 48 hrs by wound healing assay; assay type: functional, cell-based
# MDA-MB-231 [11] = experiment: Induction of G1 cell cycle arrest in human MDA-MB-231 cells at 100 nM after 24 to 48 hrs; assay type: functional, cell-based; details: time 24-48 hrs
# Calu-1 [12] = experiment: Inhibition of cell migration in human Calu-1 cells at 100 nM after 12 to 24 hrs by wound healing assay; assay type: functional, cell-based; details: time lower […], time upper 24.0 hrs
# HEK-293T = experiment: Antiproliferative activity against human 293T cells overexpressing ALK G1202R mutant assessed as cell growth inhibition after 72 hrs; assay type: functional, cell-based
# [13] = molecular target: T1, ALK tyrosine kinase receptor (Homo sapiens, UniProt Q9UM73); experiment: Induction of ALK degradation in human SR cells at 500 nM after 16 hrs by Western blot analysis; assay type: cell-based
# T1 sequence (Q9UM73 19-1620 limits assumed): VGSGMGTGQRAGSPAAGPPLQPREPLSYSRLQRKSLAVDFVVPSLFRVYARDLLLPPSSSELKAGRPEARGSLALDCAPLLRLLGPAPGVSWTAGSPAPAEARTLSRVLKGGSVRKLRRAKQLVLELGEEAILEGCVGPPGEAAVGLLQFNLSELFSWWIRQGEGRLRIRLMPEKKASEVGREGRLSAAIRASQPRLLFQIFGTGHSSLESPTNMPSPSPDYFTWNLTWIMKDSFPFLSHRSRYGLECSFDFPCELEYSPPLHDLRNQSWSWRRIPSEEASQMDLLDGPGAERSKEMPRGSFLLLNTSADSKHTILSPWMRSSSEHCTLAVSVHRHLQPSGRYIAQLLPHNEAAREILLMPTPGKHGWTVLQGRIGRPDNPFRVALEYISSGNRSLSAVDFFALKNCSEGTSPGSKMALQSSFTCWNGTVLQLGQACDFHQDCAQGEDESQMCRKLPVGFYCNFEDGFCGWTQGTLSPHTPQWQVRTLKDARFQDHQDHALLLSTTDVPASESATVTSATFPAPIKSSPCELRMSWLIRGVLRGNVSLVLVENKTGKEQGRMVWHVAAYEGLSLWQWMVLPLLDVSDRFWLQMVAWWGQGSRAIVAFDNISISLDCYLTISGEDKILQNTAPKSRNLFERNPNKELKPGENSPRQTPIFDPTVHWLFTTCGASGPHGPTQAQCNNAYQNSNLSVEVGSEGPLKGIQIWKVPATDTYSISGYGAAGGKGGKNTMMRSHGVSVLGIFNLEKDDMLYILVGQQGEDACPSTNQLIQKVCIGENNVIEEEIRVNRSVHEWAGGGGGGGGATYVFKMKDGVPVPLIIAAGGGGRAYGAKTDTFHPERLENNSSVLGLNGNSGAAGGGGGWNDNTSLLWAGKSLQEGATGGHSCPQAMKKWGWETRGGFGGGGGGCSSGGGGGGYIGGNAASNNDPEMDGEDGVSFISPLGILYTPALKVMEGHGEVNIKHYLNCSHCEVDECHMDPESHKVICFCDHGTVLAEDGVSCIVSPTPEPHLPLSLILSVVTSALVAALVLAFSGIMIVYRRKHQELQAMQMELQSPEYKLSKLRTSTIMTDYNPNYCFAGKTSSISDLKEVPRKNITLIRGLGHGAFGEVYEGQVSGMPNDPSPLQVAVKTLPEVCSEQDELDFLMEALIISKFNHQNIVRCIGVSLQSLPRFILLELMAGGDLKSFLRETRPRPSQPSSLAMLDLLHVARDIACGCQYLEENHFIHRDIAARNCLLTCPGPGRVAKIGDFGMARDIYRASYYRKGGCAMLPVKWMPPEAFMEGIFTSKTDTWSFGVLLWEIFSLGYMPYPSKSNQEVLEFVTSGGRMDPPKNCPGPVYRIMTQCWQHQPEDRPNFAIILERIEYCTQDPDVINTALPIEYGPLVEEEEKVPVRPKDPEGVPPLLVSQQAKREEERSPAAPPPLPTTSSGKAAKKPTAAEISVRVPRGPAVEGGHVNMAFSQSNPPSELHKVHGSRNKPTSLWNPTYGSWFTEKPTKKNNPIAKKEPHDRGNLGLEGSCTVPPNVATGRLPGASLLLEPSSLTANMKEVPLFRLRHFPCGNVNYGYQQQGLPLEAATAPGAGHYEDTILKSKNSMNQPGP
# [14] = molecular target: Focal adhesion kinase 1 (Homo sapiens) (UniProt Q05397); experiment: Induction of FAK degradation in human MDA-MB-231 cells assessed as protein stability at 50 ug/ml after 8 hrs; assay type: cell-based; details: dose 50.0 µg/ml
# Sequence of Focal adhesion kinase 1 (Homo sapiens) (Q05397 2-1052 limits assumed): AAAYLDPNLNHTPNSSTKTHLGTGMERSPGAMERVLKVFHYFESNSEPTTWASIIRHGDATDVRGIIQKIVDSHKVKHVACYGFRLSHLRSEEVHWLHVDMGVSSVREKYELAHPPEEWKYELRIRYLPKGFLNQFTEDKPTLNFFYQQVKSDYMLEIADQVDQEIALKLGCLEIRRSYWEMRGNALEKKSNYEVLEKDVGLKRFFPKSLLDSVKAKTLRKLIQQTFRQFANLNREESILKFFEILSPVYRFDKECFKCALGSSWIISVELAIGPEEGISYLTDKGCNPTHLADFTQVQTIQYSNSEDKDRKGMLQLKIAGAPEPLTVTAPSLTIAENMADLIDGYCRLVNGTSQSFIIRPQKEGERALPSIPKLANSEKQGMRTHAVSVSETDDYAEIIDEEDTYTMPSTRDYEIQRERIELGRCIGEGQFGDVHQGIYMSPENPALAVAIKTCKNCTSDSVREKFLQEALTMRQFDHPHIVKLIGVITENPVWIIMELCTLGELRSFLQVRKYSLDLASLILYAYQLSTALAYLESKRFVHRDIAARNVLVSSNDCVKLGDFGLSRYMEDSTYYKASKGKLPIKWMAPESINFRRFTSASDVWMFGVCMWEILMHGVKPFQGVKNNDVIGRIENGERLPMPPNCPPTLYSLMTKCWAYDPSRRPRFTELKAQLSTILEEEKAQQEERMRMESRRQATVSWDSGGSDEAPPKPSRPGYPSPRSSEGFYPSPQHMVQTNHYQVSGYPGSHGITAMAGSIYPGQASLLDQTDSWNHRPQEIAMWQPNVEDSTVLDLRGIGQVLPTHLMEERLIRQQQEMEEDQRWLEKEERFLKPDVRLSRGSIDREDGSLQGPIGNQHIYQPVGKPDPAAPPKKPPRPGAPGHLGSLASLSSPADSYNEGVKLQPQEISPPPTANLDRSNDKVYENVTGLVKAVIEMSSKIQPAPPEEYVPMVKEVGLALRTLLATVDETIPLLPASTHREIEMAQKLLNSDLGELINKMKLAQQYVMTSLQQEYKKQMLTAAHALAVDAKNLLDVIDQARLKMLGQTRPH
# [15] = molecular target: Protein-tyrosine kinase 2-beta (Homo sapiens) (UniProt Q14289); experiment: Induction of PYK2 degradation in human MDA-MB-231 cells assessed as protein stability at 50 ug/ml after 8 hrs; assay type: cell-based; details: dose 50.0 µg/ml
# Sequence of Protein-tyrosine kinase 2-beta (Homo sapiens) (Q14289 whole entry, looked up): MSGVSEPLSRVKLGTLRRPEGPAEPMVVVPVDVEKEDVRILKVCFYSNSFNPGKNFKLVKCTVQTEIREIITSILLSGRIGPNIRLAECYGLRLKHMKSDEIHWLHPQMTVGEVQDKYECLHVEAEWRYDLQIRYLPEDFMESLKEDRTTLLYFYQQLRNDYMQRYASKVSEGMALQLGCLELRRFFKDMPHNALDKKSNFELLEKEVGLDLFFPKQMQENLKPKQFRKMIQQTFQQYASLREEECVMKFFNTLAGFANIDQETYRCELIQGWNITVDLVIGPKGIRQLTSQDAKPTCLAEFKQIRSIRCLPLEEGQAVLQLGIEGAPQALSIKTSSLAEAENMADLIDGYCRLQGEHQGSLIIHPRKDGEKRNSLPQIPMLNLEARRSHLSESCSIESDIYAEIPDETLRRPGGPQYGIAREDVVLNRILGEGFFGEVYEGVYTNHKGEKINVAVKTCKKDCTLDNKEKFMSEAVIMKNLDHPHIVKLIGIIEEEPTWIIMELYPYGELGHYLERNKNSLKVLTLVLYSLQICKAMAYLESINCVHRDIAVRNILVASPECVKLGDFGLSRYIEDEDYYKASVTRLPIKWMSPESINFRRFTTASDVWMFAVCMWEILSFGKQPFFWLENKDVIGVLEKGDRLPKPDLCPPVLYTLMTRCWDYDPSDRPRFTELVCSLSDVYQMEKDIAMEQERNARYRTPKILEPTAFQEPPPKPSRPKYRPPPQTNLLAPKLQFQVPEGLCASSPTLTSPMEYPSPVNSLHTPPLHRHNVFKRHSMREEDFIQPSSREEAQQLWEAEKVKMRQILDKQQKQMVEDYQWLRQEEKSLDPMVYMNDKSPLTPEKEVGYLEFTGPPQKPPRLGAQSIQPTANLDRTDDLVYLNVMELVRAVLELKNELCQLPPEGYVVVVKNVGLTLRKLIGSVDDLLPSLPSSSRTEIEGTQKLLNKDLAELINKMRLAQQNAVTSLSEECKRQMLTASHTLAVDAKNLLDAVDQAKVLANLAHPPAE
# [16] = molecular target: T1, ALK tyrosine kinase receptor; experiment: Induction of ALK degradation in human SR cells assessed as protein stability at 50 ug/ml after 24 hrs; assay type: cell-based; details: dose 50.0 µg/ml
smiles,measurement,setting,value
COc1cc(N2CCC(N3CCN(C(=O)CCOCCOCCOCCNc4cccc5c4C(=O)N(C4CCC(=O)NC4=O)C5=O)CC3)CC2)ccc1Nc1ncc(Cl)c(Nc2ccccc2P(C)(C)=O)n1 (stereo not drawn),IC50,SR [1],5.3 nM
COc1cc(N2CCC(N3CCN(C(=O)CCOCCOCCOCCOCCOCCNc4cccc5c4C(=O)N(C4CCC(=O)NC4=O)C5=O)CC3)CC2)ccc1Nc1ncc(Cl)c(Nc2ccccc2P(C)(C)=O)n1 (stereo not drawn),IC50,SR [1],14 nM
COc1cc(N2CCC(N3CCN(C(=O)CCCNc4cccc5c4C(=O)N(C4CCC(=O)NC4=O)C5=O)CC3)CC2)ccc1Nc1ncc(Cl)c(Nc2ccccc2P(C)(C)=O)n1 (stereo not drawn),IC50,SR [1],2.9 nM
COc1cc(N2CCC(N3CCN(C(=O)CCCCCNc4cccc5c4C(=O)N(C4CCC(=O)NC4=O)C5=O)CC3)CC2)ccc1Nc1ncc(Cl)c(Nc2ccccc2P(C)(C)=O)n1 (stereo not drawn),IC50,SR [1],3.3 nM
COc1cc(N2CCC(N3CCN(C)CC3)CC2)ccc1Nc1ncc(Cl)c(Nc2ccccc2P(C)(C)=O)n1 [BRIGATINIB],Activity,SR [2],inactive
same,Activity,SR [3],Active
same,Activity,Calu-1 [4],inactive
same,inhibition,[5],inactive
same,Activity,MDA-MB-231 [6],inactive
same,inhibition,[7],Active
same,IC50,SR [1],3.3 nM
same,Activity,Calu-1 [8],inactive
same,inhibition at 0.5 µM,MDA-MB-231 [9],56%
same,inhibition,MDA-MB-231 [10],inactive
same,Activity,MDA-MB-231 [11],inactive
same,inhibition,Calu-1 [12],inactive
same,IC50,HEK-293T,850 nM
COc1cc(N2CCC(N3CCN(C(=O)CCOCCOCCNc4cccc5c4C(=O)N(C4CCC(=O)NC4=O)C5=O)CC3)CC2)ccc1Nc1ncc(Cl)c(Nc2ccccc2P(C)(C)=O)n1 (stereo not drawn),IC50,SR [1],3.6 nM
COc1cc(N2CCC(N3CCN(C(=O)CNc4cccc5c4C(=O)N(C4CCC(=O)N(C)C4=O)C5=O)CC3)CC2)ccc1Nc1ncc(Cl)c(Nc2ccccc2P(C)(C)=O)n1 (stereo not drawn),IC50,SR [1],16.3 nM
same,Activity,[13],Active
COc1cc(N2CCC(N3CCN(C(=O)CCCCCCNc4cccc5c4C(=O)N(C4CCC(=O)NC4=O)C5=O)CC3)CC2)ccc1Nc1ncc(Cl)c(Nc2ccccc2P(C)(C)=O)n1 (stereo not drawn),IC50,SR [1],4.8 nM
COc1cc(N2CCC(N3CCN(C(=O)CCCCNc4cccc5c4C(=O)N(C4CCC(=O)NC4=O)C5=O)CC3)CC2)ccc1Nc1ncc(Cl)c(Nc2ccccc2P(C)(C)=O)n1 (stereo not drawn),IC50,SR [1],7.4 nM
COc1cc(N2CCC(N3CCN(C(=O)CCOCCOCCOCCOCCNc4cccc5c4C(=O)N(C4CCC(=O)NC4=O)C5=O)CC3)CC2)ccc1Nc1ncc(Cl)c(Nc2ccccc2P(C)(C)=O)n1 (stereo not drawn),IC50,SR [1],11.2 nM
C[C@@H]1C[C@@H]([C@H](O)CC2CC(=O)NC(=O)C2)C(=O)[C@@H](C)C1,Activity,[14],Active
same,Activity,[15],Active
same,Activity,[16],Active
COc1cc(N2CCC(N3CCN(C(=O)CCOCCNc4cccc5c4C(=O)N(C4CCC(=O)NC4=O)C5=O)CC3)CC2)ccc1Nc1ncc(Cl)c(Nc2ccccc2P(C)(C)=O)n1 (stereo not drawn),IC50,SR [1],3.8 nM
COc1cc(N2CCC(N3CCN(C(=O)CCNc4cccc5c4C(=O)N(C4CCC(=O)NC4=O)C5=O)CC3)CC2)ccc1Nc1ncc(Cl)c(Nc2ccccc2P(C)(C)=O)n1 (stereo not drawn),IC50,SR [1],9.6 nM
